Consider three compounds from US5395838A, “6-substituted quinazolines processing anti-tumor activity” (Imperial Chemical Industries PLC, priority 1988, dated 1995).

Molecules are shown by their SMILES. Read-outs that look alike come from different tables or passages of the source.

One series deals with T1, thymidylate synthase (Mus musculus, UniProt P07607).
T1 construct: obtained in partially purified form from L1210 mouse leukaemia cells; endogenous in cells; host or cells: L1210 mouse leukaemia cells (enzyme partially purified)
T1 sequence (P07607 whole entry): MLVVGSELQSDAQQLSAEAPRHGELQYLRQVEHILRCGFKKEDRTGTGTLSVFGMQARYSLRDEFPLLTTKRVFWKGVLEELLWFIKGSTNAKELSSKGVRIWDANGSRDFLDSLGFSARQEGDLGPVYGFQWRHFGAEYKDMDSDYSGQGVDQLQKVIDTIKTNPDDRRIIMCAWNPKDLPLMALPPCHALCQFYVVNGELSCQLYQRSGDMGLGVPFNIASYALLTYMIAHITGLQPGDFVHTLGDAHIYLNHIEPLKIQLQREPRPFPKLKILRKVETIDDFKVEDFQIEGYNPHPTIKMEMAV
Put plainly: Test (a): in vitro inhibition of the enzyme thymidylate synthase (partially purified from L1210 mouse leukaemia cells). Format: biochemical. An excerpt: (a) An in vitro assay which determines the ability of a test compound to inhibit the enzyme thymidylate synthase.

The subject of a further series is L1210. Briefly: Test (b): inhibition of the growth of the leukaemia cell line L1210 in cell culture. Format: cell-based. The settings on record: Mus musculus, read-out: IC50 against the L1210 cell line [Test (b)]. An excerpt:
(b) An assay which determines the ability of a test compound to inhibit the growth of the leukaemia cell line L1210 in cell culture. The test is similar to that described in UK Patent Specification No. 2065653B;

The conditions of series [1]: particularly in relation to the liver and kidney; cited from earlier work.
Series [2] concerns human breast, ovarian and liver cancer. The settings on record: clinical trials; cited from earlier work.

As to `C#CCN(Cc1ccc2nc(C)nc(O)c2c1)c1ccc(C(=O)NCc2ccccn2)cc1` [p-[N-(3,4-dihydro-2-methyl-4-oxoquinazolin-6-ylmethyl)-N-(prop-2-ynyl)amino]-N-(2-pyridylmethyl)benzamide], the IC50 at thymidylate synthase (enzyme from L1210 mouse leukaemia cells, read-out: IC50 against thymidylate synthase [Test (a)]) was found to be 0.5 µM; in the series on L1210, 3.9 µM.

For `C#CCN(Cc1ccc2nc(N)[nH]c(=O)c2c1)c1ccc(C(=O)N[C@@H](CCC(=O)O)C(=O)O)cc1` [CB3717], the “symptoms of toxicity in humans” value in series [1] is “shows symptoms of toxicity in humans, particularly in relation to the liver and kidney”. For the same compound, the “activity against human breast, ovarian and liver cancer” value in series [2] was “promising activity against human breast, ovarian and liver cancer”.

Consider `C#CCN(Cc1ccc2nc(C)[nH]c(=O)c2c1)c1ccc(C(=O)NCc2ccccc2[N+](=O)[O-])cc1` [p-[N-(3,4-dihydro-2-methyl-4-oxoquinazolin-6-ylmethyl)-N-(prop-2-ynyl)amino]-N-(2-nitrobenzyl)benzamide], for which the IC50 was 0.05 µM on thymidylate synthase and 1.8 µM with L1210.
